Source: patent US20180318311A1, “TRICYCLIC 2-QUINOLINONES AS ANTIBACTERIALS” (priority 2017, published 2018)
In brackets after ≈: the same amount, converted by molar mass.

Tests used:
Format in all cases: cell-based
[1] = tested on: E. coli ATCC 25922 (NB27001); assay: MIC by broth microdilution, E. coli NB27001; details: Escherichia coli, ATCC25922, CAMHB, 35° C., 20 hours, read-out: Antibacterial activity (MIC) NB27001
Description: (§1) Bacterial isolates were cultivated from −80° C. frozen stocks by overnight passages at 35° C. in ambient air on Mueller-Hinton agar plates (MHA, Becton Dickinson, Franklin Lakes, NB) with the exception of S. pneumoniae which was grown overnight at 35° C. in the presence of 5% CO2 on blood agar plates (tryptic soy agar with 5% sheep blood (Thermo Scientific, Waltham, Mass.) . The following quality control and wild type strains were obtained from the American Type Culture Collection (ATCC; Rockville, Md.) and are coded in the Novartis strain collection as indicated: E. coli ATCC 25922 (NB27001), E. faecalis ATCC 29212 (NB04001), S. aureus ATCC 49951 (NB01006) and S. pneumoniae ATCC […] (NB07001). […] P. aeruginosa NB52019, obtained from Queen's University (Kingston, Ontario, Canada), is the wild-type PAO1 strain.
(§2) Minimal Inhibitory Concentrations (MIC) were determined by the broth microdilution method in accordance with Clinical and Laboratories Institute (CLSI) guidelines. In brief, fresh bacterial overnight cultures were re-suspended in sterile saline, adjusted to a 0.5 McFarland turbidity standard and then diluted to yield a final inoculum of approximately 5×10^5 colony-forming units (CFU)/mL. All bacterial suspensions were prepared in cation adjusted Mueller-Hinton Broth (CAMHB; Becton Dickinson, Franklin Lakes, N.J.;) with the exception of S. pneumoniae which was prepared in CAMHB supplemented with 5% lysed horse blood (Hardy Diagnostics, Santa Maria, Calif.). Two-fold serial dilutions of compounds were prepared in 100% dimethyl sulfoxide (DMSO) at 100-fold the highest final assay concentration; the resulting dilution series of compounds were diluted 1:10 with sterile water. Ten μL of the drug dilution series in 10% DMSO was transferred to microtiter wells and 90 μL of bacterial suspension was inoculated into the wells. All inoculated microdilution trays were incubated in ambient air at 35° C. for 20 hours. Following incubation, assay plates were read in a microtiter plate reader at 600 nm and visually inspected to confirm the MIC endpoint well with the OD value. The lowest concentration of the compound that prevented visible growth was recorded as the MIC (in μg/mL).

[2] = tested on: P. aeruginosa NB52019, wild-type PAO1 strain; assay: MIC by broth microdilution, P. aeruginosa NB52019; details: Pseudomonas aeruginosa, CAMHB, 35° C., 20 hours, read-out: Antibacterial activity (MIC) NB52019
Description: as §1, §2

[3] = tested on: S. aureus NB01080 fluoroquinolone-resistant clinical isolate; assay: MIC by broth microdilution, S. aureus NB01080; details: Staphylococcus aureus, CAMHB, 35° C., 20 hours, read-out: Antibacterial activity (MIC) NB01080
Description: as §1, §2

[4] = tested on: S. pneumoniae ATCC 25922 (NB07001); assay: MIC by broth microdilution, S. pneumoniae NB07001; details: Streptococcus pneumoniae, ATCC25922, 20 h, read-out: Antibacterial activity (MIC) NB07001
Description: as §1, §2

[5] = tested on: S. aureus NB01006-AVR005, gyrA (S84L), grlA (580F) and grlB (E471K); assay: microbe, parasite or virus in culture; details: Staphylococcus aureus, 20 h, read-out: Antibacterial activity (MIC) NB01006-AVR005
Description: as §1, §2

[6] = tested on: S. aureus ATCC 49951 (NB01006); assay: MIC by broth microdilution, S. aureus NB01006; details: Staphylococcus aureus, ATCC49951, CAMHB, 35° C., 20 hours, read-out: Antibacterial activity (MIC) NB01006
Description: as §1, §2

[7] = tested on: E. faecalis ATCC 29212 (NB04001); assay: MIC by broth microdilution, E. faecalis NB04001; details: Enterococcus faecalis, ATCC29212, CAMHB, 35° C., 20 hours, read-out: Antibacterial activity (MIC) NB04001
Description: as §1, §2

Row | SMILES | MIC [1] [µg/mL] | MIC [2] [µg/mL] | MIC [3] [µg/mL] | MIC [4] [µg/mL] | MIC [5] [µg/mL] | MIC [6] [µg/mL] | MIC [7] [µg/mL]
1 | C[C@H]1COc2c(N3CC[C@H](N)C3)c(F)cc3cc(C(=O)O)c(=O)n1c23 [Example 1.2, (S)-10-((S)-3-aminopyrrolidin-1-yl)-9-fluoro-3-methyl-5-oxo-2,3-dihydro-5H-[1,4]oxazino[2,3,4-ij]quinoline-6-carboxylic acid] | 1 to 32 (≈ 2.88 to 92.1 µM) | 1 to 32 (≈ 2.88 to 92.1 µM) | > 32 | 1 to 32 (≈ 2.88 to 92.1 µM) | > 32 | 1 to 32 (≈ 2.88 to 92.1 µM) | 1 to 32 (≈ 2.88 to 92.1 µM)
2 | C[C@H]1COc2c(N3CC4CC4(N)C3)c(F)cc3cc(C(=O)O)c(=O)n1c23 (stereo partly drawn) [Example 1.3, (3S)-10-(1-amino-3-azabicyclo[3.1.0]hexan-3-yl)-9-fluoro-3-methyl-5-oxo-2,3-dihydro-5H-[1,4]oxazino[2,3,4-ij]quinoline-6-carboxylic acid] | 1 to 32 (≈ 2.78 to 89 µM) | > 32 | 1 to 32 (≈ 2.78 to 89 µM) | 1 to 32 (≈ 2.78 to 89 µM) | 1 to 32 (≈ 2.78 to 89 µM) | < 1 | 1 to 32 (≈ 2.78 to 89 µM)
3 | C[C@H]1COc2c(N3CCN(C)CC3)c(F)cc3cc(C(=O)O)c(=O)n1c23 [Example 1.4, (S)-9-fluoro-3-methyl-10-(4-methylpiperazin-1-yl)-5-oxo-2,3-dihydro-5H-[1,4]oxazino[2,3,4-ij]quinoline-6-carboxylic acid] | 1 to 32 (≈ 2.77 to 88.6 µM) | > 32 | > 32 | > 32 | > 32 | 1 to 32 (≈ 2.77 to 88.6 µM) | > 32
4 | C[C@H](N)[C@@H]1CCN(c2c(F)cc3cc(C(=O)O)c(=O)n4c3c2OC[C@@H]4C)C1 [Example 1.5, (S)-10-((R)-3-((S)-1-aminoethyl)pyrrolidin-1-yl)-9-fluoro-3-methyl-5-oxo-2,3-dihydro-5H-[1,4]oxazino[2,3,4-ij]quinoline-6-carboxylic acid] | 1 to 32 (≈ 2.66 to 85.2 µM) | 1 to 32 (≈ 2.66 to 85.2 µM) | < 1 | < 1 | 1 to 32 (≈ 2.66 to 85.2 µM) | < 1 | < 1
5 | C[C@H]1COc2c(N3CC[C@H](O)C3)c(F)cc3cc(C(=O)O)c(=O)n1c23 [Example 1.6, (S)-9-fluoro-10-((S)-3-hydroxypyrrolidin-1-yl)-3-methyl-5-oxo-2,3-dihydro-5H-[1,4]oxazino[2,3,4-ij]quinoline-6-carboxylic acid] | 1 to 32 (≈ 2.87 to 91.9 µM) | > 32 | 1 to 32 (≈ 2.87 to 91.9 µM) | 1 to 32 (≈ 2.87 to 91.9 µM) | > 32 | < 1 | 1 to 32 (≈ 2.87 to 91.9 µM)
6 | C[C@H]1COc2c(N3CCC(=C(Cl)CO)CC3)c(F)cc3cc(C(=O)O)c(=O)n1c23 [Example 1.8, (S)-10-(4-(1-chloro-2-hydroxyethylidene)piperidin-1-yl)-9-fluoro-3-methyl-5-oxo-2,3-dihydro-5H-[1,4]oxazino[2,3,4-ij]quinoline-6-carboxylic acid] | > 32 | > 32 | < 1 | < 1 | 1 to 32 (≈ 2.36 to 75.7 µM) | < 1 | < 1
7 | C[C@H]1COc2c(N3CCC(C4(N)COC4)C3)c(F)cc3cc(C(=O)O)c(=O)n1c23 (stereo partly drawn) [Example 1.9, (3S)-10-(3-(3-aminooxetan-3-yl)pyrrolidin-1-yl)-9-fluoro-3-methyl-5-oxo-2,3-dihydro-5H-[1,4]oxazino[2,3,4-ij]quinoline-6-carboxylic acid] | > 32 | > 32 | > 32 | 1 to 32 (≈ 2.48 to 79.3 µM) | > 32 | 1 to 32 (≈ 2.48 to 79.3 µM) | > 32
8 | C[C@H]1COc2c(N3CCC(=C(Cl)CN)CC3)c(F)cc3cc(C(=O)O)c(=O)n1c23 [Example 1.10, (S)-10-(4-(2-amino-1-chloroethylidene)piperidin-1-yl)-9-fluoro-3-methyl-5-oxo-2,3-dihydro-5H-[1,4]oxazino[2,3,4-ij]quinoline-6-carboxylic acid] | > 32 | > 32 | 1 to 32 (≈ 2.37 to 75.9 µM) | < 1 | > 32 | 1 to 32 (≈ 2.37 to 75.9 µM) | 1 to 32 (≈ 2.37 to 75.9 µM)
9 | CNC1([C@@H]2CCN(c3c(F)cc4cc(C(=O)O)c(=O)n5c4c3OC[C@@H]5C)C2)CC1 [Example 1.12, (S)-9-fluoro-3-methyl-10-((R)-3-(1-(methylamino)cyclopropyl)pyrrolidin-1-yl)-5-oxo-2,3-dihydro-5H-[1,4]oxazino[2,3,4-ij]quinoline-6-carboxylic acid] | 1 to 32 (≈ 2.49 to 79.7 µM) | > 32 | 1 to 32 (≈ 2.49 to 79.7 µM) | < 1 | 1 to 32 (≈ 2.49 to 79.7 µM) | < 1 | 1 to 32 (≈ 2.49 to 79.7 µM)
10 | C[C@H]1COc2c(N3CC4CCCC4(N)C3)c(F)cc3cc(C(=O)O)c(=O)n1c23 (stereo partly drawn) [Example 1.13, (3S)-10-(3a-aminohexahydrocyclopenta [c]pyrrol-2(1H)-yl)-9-fluoro-3-methyl-5-oxo-2,3-dihydro-5H-[1,4]oxazino[2,3,4-ij]quinoline-6-carboxylic acid] | 1 to 32 (≈ 2.58 to 82.6 µM) | > 32 | > 32 | 1 to 32 (≈ 2.58 to 82.6 µM) | > 32 | 1 to 32 (≈ 2.58 to 82.6 µM) | 1 to 32 (≈ 2.58 to 82.6 µM)
11 | C[C@H]1COc2c(N3CCN4C(=O)CCC4C3)c(F)cc3cc(C(=O)O)c(=O)n1c23 (stereo partly drawn) [Example 1.14, (3S)-9-fluoro-3-methyl-5-oxo-10-(6-oxohexahydropyrrolo[1,2-a]pyrazin-2(1H)-yl)-2,3-dihydro-5H-[1,4]oxazino[2,3,4-ij]quinoline-6-carboxylic acid] | > 32 | > 32 | 1 to 32 (≈ 2.49 to 79.7 µM) | 1 to 32 (≈ 2.49 to 79.7 µM) | 1 to 32 (≈ 2.49 to 79.7 µM) | < 1 | 1 to 32 (≈ 2.49 to 79.7 µM)
12 | C[C@H]1COc2c(N3Cc4ccncc4C3)c(F)cc3cc(C(=O)O)c(=O)n1c23 [Example 1.15, (S)-10-(1,3-dihydro-2H-pyrrolo[3,4-c]pyridin-2-yl)-9-fluoro-3-methyl-5-oxo-2,3-dihydro-5H-[1,4]oxazino[2,3,4-ij]quinoline-6-carboxylic acid] | 1 to 32 (≈ 2.62 to 83.9 µM) | > 32 | 1 to 32 (≈ 2.62 to 83.9 µM) | < 1 | 1 to 32 (≈ 2.62 to 83.9 µM) | < 1 | 1 to 32 (≈ 2.62 to 83.9 µM)
13 | C[C@H]1COc2c(N3CCC(F)(CN)C3)c(F)cc3cc(C(=O)O)c(=O)n1c23 (stereo partly drawn) [Example 1.16, (3S)-10-(3-(aminomethyl)-3-fluoropyrrolidin-1-yl)-9-fluoro-3-methyl-5-oxo-2,3-dihydro-5H-[1,4]oxazino[2,3,4-ij]quinoline-6-carboxylic acid] | 1 to 32 (≈ 2.64 to 84.4 µM) | > 32 | 1 to 32 (≈ 2.64 to 84.4 µM) | < 1 | 1 to 32 (≈ 2.64 to 84.4 µM) | < 1 | 1 to 32 (≈ 2.64 to 84.4 µM)
14 | C[C@H]1COc2c(N3CCC4(CC3)CNC4)c(F)cc3cc(C(=O)O)c(=O)n1c23 [Example 1.17, (S)-9-fluoro-3-methyl-5-oxo-10-(2,7-diazaspiro[3,5]nonan-7-yl)-2,3-dihydro-5H-[1,4]oxazino[2,3,4-ij]quinoline-6-carboxylic acid] | > 32 | > 32 | > 32 | > 32 | > 32 | > 32 | > 32
15 | C[C@H]1COc2c(N3CC4CC4(CN)C3)c(F)cc3cc(C(=O)O)c(=O)n1c23 (stereo partly drawn) [Example 1.18] | > 32 | > 32 | > 32 | 1 to 32 (≈ 2.68 to 85.7 µM) | > 32 | < 1 | 1 to 32 (≈ 2.68 to 85.7 µM)
